Laboratory results published in patent publication US11084790B2, “Insoluble complex or solvate thereof, pharmaceutical composition and use thereof” (Fruithy Holdings Limited, priority 2017, dated 2021).
Counter-ions that a name gives are not always drawn.

Experiments:
[1] = Systemic pharmacokinetic study of a bis(bupivacaine) pamoate suspension after a single subcutaneous injection at three points in a hind limb in SD rats; assay type: in vivo; conditions: male, rat, sc, single subcutaneous injection at three points in left hind limb, 5 mg/kg, bupivacaine in blood
Excerpt: Systemic Pharmacokinetic Study of a bis(bupivacaine) pamoate Suspension After a Single Subcutaneously Injection at Three Points in a Hind Limb in SD Rats
The systemic absorption and exposure of bis(bupivacaine) pamoate in a rat body was further evaluated by performing a systemic pharmacokinetic research on SD rats which were subcutaneously injected with a bis(bupivacaine) pamoate suspension (Formulation Example 3) once at three points in a left hind limb and comparing with a commercial bupivacaine hydrochloride injection. The long-acting sustained release feature of bis(bupivacaine) pamoate was verified by comparing the pharmacokinetic parameters of bis(bupivacaine) pamoate with a commercial formulation.
In the example, 20 healthy SD male rats (Beijing Vital River Laboratory Animal Technology Co., Ltd., 190 to 210 g) were chosen and randomly divided into 2 groups, i.e., a group for Formulation Example 3 and a group for the commercial bupivacaine hydrochloride injection (Wuhu Kangqi Pharmaceutical Co., Ltd.) group, with 10 animals in each group.
About 0.5 mL of venous blood was collected at 30 min, 1 h, 2 h, 6 h, 8 h, 24 h, 48 h, 72 h and 96 h respectively after administration for both groups of laboratory animals for determining the blood drug concentration of bupivacaine.

[2] = Test on the solubility in a simulated body fluid; assay type: physicochemical; conditions: 0.01 M PBS pH 7.4, 37° C.
Protocol: Test on the Solubility in a Simulated Body Fluid
The concentration of the drug dissolved in the PBS buffered solution was determined with an HPLC-a method.

[3] = Test on the solubility in media at different pH; assay type: physicochemical
Protocol: Test on the Solubility in Media at Different pH
About 200 mg of solid powders of Preparation Example 10 and Preparation Example 15 were added in a 500 mL phosphate buffered solution at different pH values (50 mmol/L, pH 5.5, pH 6.5, pH 7.4, and pH 8.0) respectively, placed into a dissolution tester, kept at a constant temperature of 37° C., and paddle stirred at 50 rpm for 72 hours. Appropriate amounts of the suspension were taken out at 15 min, 30 min, 45 min, 1 h, 2 h, 4 h, 6 h, 8 h, 24 h, 32 h, 48 h, and 72 h respectively, and centrifuged immediately (15000 rpm, 5 min). The supernatant was diluted with methanol by a factor of two. The concentration of the drug dissolved in the PB buffer solution was determined with an HPLC-b method.

[4] = phosphate buffer pH 5.5, 37° C., 0.25 h
[5] = phosphate buffer pH 5.5, 37° C., 0.5 h
[6] = phosphate buffer pH 5.5, 37° C., 0.75 h
[7] = phosphate buffer pH 5.5, 37° C., 1 h
[8] = phosphate buffer pH 5.5, 37° C., 2 h
[9] = phosphate buffer pH 5.5, 37° C., 4 h
[10] = phosphate buffer pH 5.5, 37° C., 6 h
[11] = phosphate buffer pH 5.5, 37° C., 8 h
[12] = phosphate buffer pH 5.5, 37° C., 24 h
[13] = phosphate buffer pH 5.5, 37° C., 32 h
[14] = phosphate buffer pH 5.5, 37° C., 48 h
[15] = phosphate buffer pH 5.5, 37° C., 72 h
[16] = phosphate buffer pH 6.5, 37° C., 0.25 h
[17] = phosphate buffer pH 6.5, 37° C., 0.5 h
[18] = phosphate buffer pH 6.5, 37° C., 0.75 h
[19] = phosphate buffer pH 6.5, 37° C., 1 h
[20] = phosphate buffer pH 6.5, 37° C., 2 h
[21] = phosphate buffer pH 6.5, 37° C., 4 h
[22] = phosphate buffer pH 6.5, 37° C., 6 h
[23] = phosphate buffer pH 6.5, 37° C., 8 h
[24] = phosphate buffer pH 6.5, 37° C., 24 h
[25] = phosphate buffer pH 6.5, 37° C., 32 h
[26] = phosphate buffer pH 6.5, 37° C., 48 h
[27] = phosphate buffer pH 6.5, 37° C., 72 h
[28] = phosphate buffer pH 7.4, 37° C., 0.25 h
[29] = phosphate buffer pH 7.4, 37° C., 0.5 h
[30] = phosphate buffer pH 7.4, 37° C., 0.75 h
[31] = phosphate buffer pH 7.4, 37° C., 1 h
[32] = phosphate buffer pH 7.4, 37° C., 2 h
[33] = phosphate buffer pH 7.4, 37° C., 4 h
[34] = phosphate buffer pH 7.4, 37° C., 6 h
[35] = phosphate buffer pH 7.4, 37° C., 8 h
[36] = phosphate buffer pH 7.4, 37° C., 24 h
[37] = phosphate buffer pH 7.4, 37° C., 32 h
[38] = phosphate buffer pH 7.4, 37° C., 48 h
[39] = phosphate buffer pH 7.4, 37° C., 72 h
[40] = phosphate buffer pH 8.0, 37° C., 0.25 h
[41] = phosphate buffer pH 8.0, 37° C., 0.5 h
[42] = phosphate buffer pH 8.0, 37° C., 0.75 h
[43] = phosphate buffer pH 8.0, 37° C., 1 h
[44] = phosphate buffer pH 8.0, 37° C., 2 h
[45] = phosphate buffer pH 8.0, 37° C., 4 h
[46] = phosphate buffer pH 8.0, 37° C., 6 h
[47] = phosphate buffer pH 8.0, 37° C., 8 h
[48] = phosphate buffer pH 8.0, 37° C., 24 h
[49] = phosphate buffer pH 8.0, 37° C., 32 h
[50] = phosphate buffer pH 8.0, 37° C., 48 h
[51] = phosphate buffer pH 8.0, 37° C., 72 h

CCCCN1CCCCC1C(=O)Nc1c(C)cccc1C (centres unmarked) [bupivacaine hydrochloride]
AUC(0-t) [1]: 711 ng·h/mL
Cmax [1]: 330 ng/mL
Tmax [1]: 37.8 min
half-life [1]: 60 min

CCCCN1CCCCC1C(=O)Nc1c(C)cccc1C.O=C(O)c1cc2ccccc2c(Cc2c(O)c(C(=O)O)cc3ccccc23)c1O [Preparation Example 10, mono(bupivacaine) pamoate]
Compound concentration: Bupivacaine ([2]; 5 min): 722 µM
Compound concentration: Pamoic acid ([2]; 5 min): 742.7 µM
Compound concentration: Bupivacaine ([2]; 15 min): 833 µM
Compound concentration: Pamoic acid ([2]; 15 min): 857.9 µM
Compound concentration: Bupivacaine ([2]; 30 min): 885.9 µM
Compound concentration: Pamoic acid ([2]; 30 min): 916.8 µM
Compound concentration: Bupivacaine ([2]; 1 h): 938.7 µM
Compound concentration: Pamoic acid ([2]; 1 h): 981.6 µM
Compound concentration: Bupivacaine ([2]; 2 h): 909.7 µM
Compound concentration: Pamoic acid ([2]; 2 h): 995.7 µM
Compound concentration: Bupivacaine ([2]; 6 h): 83.3 µM
Compound concentration: Pamoic acid ([2]; 6 h): 1867.3 µM
Compound concentration: Bupivacaine ([2]; 24 h): 67 µM
Compound concentration: Pamoic acid ([2]; 24 h): 2560.5 µM
molar ratio of the solubility (bupivacaine to pamoic acid) ([3]; media at pH 5.5, pH 7.4 and pH 8.0, remained for 48 hours or less): around 1.0
time for which the molar ratio of the solubility remained around 1.0 ([3]; medium at pH 6.5, decreased after a longer time): 8 h
Molar concentration of Bupivacaine [3, 4]: 0.047 mmol/L
Molar concentration of Pamoic acid [3, 4]: 0.046 mmol/L
Molar concentration of Bupivacaine [3, 5]: 0.078 mmol/L
Molar concentration of Pamoic acid [3, 5]: 0.076 mmol/L
Molar concentration of Bupivacaine [3, 6]: 0.106 mmol/L
Molar concentration of Pamoic acid [3, 6]: 0.103 mmol/L
Molar concentration of Bupivacaine [3, 7]: 0.136 mmol/L
Molar concentration of Pamoic acid [3, 7]: 0.132 mmol/L
Molar concentration of Bupivacaine [3, 8]: 0.188 mmol/L
Molar concentration of Pamoic acid [3, 8]: 0.182 mmol/L
Molar concentration of Bupivacaine [3, 9]: 0.222 mmol/L
Molar concentration of Pamoic acid [3, 9]: 0.218 mmol/L
Molar concentration of Bupivacaine [3, 10]: 0.234 mmol/L
Molar concentration of Pamoic acid [3, 10]: 0.232 mmol/L
Molar concentration of Bupivacaine [3, 11]: 0.234 mmol/L
Molar concentration of Pamoic acid [3, 11]: 0.23 mmol/L
Molar concentration of Bupivacaine [3, 12]: 0.246 mmol/L
Molar concentration of Pamoic acid [3, 12]: 0.244 mmol/L
Molar concentration of Bupivacaine [3, 13]: 0.248 mmol/L
Molar concentration of Pamoic acid [3, 13]: 0.248 mmol/L
Molar concentration of Bupivacaine [3, 14]: 0.198 mmol/L
Molar concentration of Pamoic acid [3, 14]: 0.236 mmol/L
Molar concentration of Bupivacaine [3, 15]: 0.142 mmol/L
Molar concentration of Pamoic acid [3, 15]: 0.224 mmol/L
Molar concentration of Bupivacaine [3, 16]: 0.05 mmol/L
Molar concentration of Pamoic acid [3, 16]: 0.053 mmol/L
Molar concentration of Bupivacaine [3, 17]: 0.084 mmol/L
Molar concentration of Pamoic acid [3, 17]: 0.09 mmol/L
Molar concentration of Bupivacaine [3, 18]: 0.115 mmol/L
Molar concentration of Pamoic acid [3, 18]: 0.124 mmol/L
Molar concentration of Bupivacaine [3, 19]: 0.148 mmol/L
Molar concentration of Pamoic acid [3, 19]: 0.160 mmol/L
Molar concentration of Bupivacaine [3, 20]: 0.274 mmol/L
Molar concentration of Pamoic acid [3, 20]: 0.296 mmol/L
Molar concentration of Bupivacaine [3, 21]: 0.384 mmol/L
Molar concentration of Pamoic acid [3, 21]: 0.414 mmol/L
Molar concentration of Bupivacaine [3, 22]: 0.396 mmol/L
Molar concentration of Pamoic acid [3, 22]: 0.424 mmol/L
Molar concentration of Bupivacaine [3, 23]: 0.404 mmol/L
Molar concentration of Pamoic acid [3, 23]: 0.448 mmol/L
Molar concentration of Bupivacaine [3, 24]: 0.186 mmol/L
Molar concentration of Pamoic acid [3, 24]: 0.440 mmol/L
Molar concentration of Bupivacaine [3, 25]: 0.15 mmol/L
Molar concentration of Pamoic acid [3, 25]: 0.426 mmol/L
Molar concentration of Bupivacaine [3, 26]: 0.14 mmol/L
Molar concentration of Pamoic acid [3, 26]: 0.428 mmol/L
Molar concentration of Bupivacaine [3, 27]: 0.128 mmol/L
Molar concentration of Pamoic acid [3, 27]: 0.416 mmol/L
Molar concentration of Bupivacaine [3, 28]: 0.0555 mmol/L
Molar concentration of Pamoic acid [3, 28]: 0.0605 mmol/L
Molar concentration of Bupivacaine [3, 29]: 0.095 mmol/L
Molar concentration of Pamoic acid [3, 29]: 0.105 mmol/L
Molar concentration of Bupivacaine [3, 30]: 0.1315 mmol/L
Molar concentration of Pamoic acid [3, 30]: 0.1465 mmol/L
Molar concentration of Bupivacaine [3, 31]: 0.170 mmol/L
Molar concentration of Pamoic acid [3, 31]: 0.190 mmol/L
Molar concentration of Bupivacaine [3, 32]: 0.288 mmol/L
Molar concentration of Pamoic acid [3, 32]: 0.320 mmol/L
Molar concentration of Bupivacaine [3, 33]: 0.386 mmol/L
Molar concentration of Pamoic acid [3, 33]: 0.430 mmol/L
Molar concentration of Bupivacaine [3, 34]: 0.428 mmol/L
Molar concentration of Pamoic acid [3, 34]: 0.476 mmol/L
Molar concentration of Bupivacaine [3, 35]: 0.440 mmol/L
Molar concentration of Pamoic acid [3, 35]: 0.486 mmol/L
Molar concentration of Bupivacaine [3, 36]: 0.426 mmol/L
Molar concentration of Pamoic acid [3, 36]: 0.550 mmol/L
Molar concentration of Bupivacaine [3, 37]: 0.402 mmol/L
Molar concentration of Pamoic acid [3, 37]: 0.592 mmol/L
Molar concentration of Bupivacaine [3, 38]: 0.204 mmol/L
Molar concentration of Pamoic acid [3, 38]: 0.498 mmol/L
Molar concentration of Bupivacaine [3, 39]: 0.166 mmol/L
Molar concentration of Pamoic acid [3, 39]: 0.458 mmol/L
Molar concentration of Bupivacaine [3, 40]: 0.0575 mmol/L
Molar concentration of Pamoic acid [3, 40]: 0.063 mmol/L
Molar concentration of Bupivacaine [3, 41]: 0.099 mmol/L
Molar concentration of Pamoic acid [3, 41]: 0.110 mmol/L
Molar concentration of Bupivacaine [3, 42]: 0.1375 mmol/L
Molar concentration of Pamoic acid [3, 42]: 0.154 mmol/L
Molar concentration of Bupivacaine [3, 43]: 0.178 mmol/L
Molar concentration of Pamoic acid [3, 43]: 0.200 mmol/L
Molar concentration of Bupivacaine [3, 44]: 0.308 mmol/L
Molar concentration of Pamoic acid [3, 44]: 0.344 mmol/L
Molar concentration of Bupivacaine [3, 45]: 0.416 mmol/L
Molar concentration of Pamoic acid [3, 45]: 0.468 mmol/L
Molar concentration of Bupivacaine [3, 46]: 0.494 mmol/L
Molar concentration of Pamoic acid [3, 46]: 0.554 mmol/L
Molar concentration of Bupivacaine [3, 47]: 0.558 mmol/L
Molar concentration of Pamoic acid [3, 47]: 0.624 mmol/L
Molar concentration of Bupivacaine [3, 48]: 0.610 mmol/L
Molar concentration of Pamoic acid [3, 48]: 0.688 mmol/L
Molar concentration of Bupivacaine [3, 49]: 0.622 mmol/L
Molar concentration of Pamoic acid [3, 49]: 0.702 mmol/L
Molar concentration of Bupivacaine [3, 50]: 0.592 mmol/L
Molar concentration of Pamoic acid [3, 50]: 0.694 mmol/L
Molar concentration of Bupivacaine [3, 51]: 0.44 mmol/L
Molar concentration of Pamoic acid [3, 51]: 0.7 mmol/L
